The target in assay [1] is SULT1A3 (Homo sapiens, UniProt P0DMM9). Briefly: Pre-steady state binding of PAP to SULT1A3 (stopped-flow fluorescence). On the set-up: Wild-type and mutant SULT1A3 coding regions were inserted into a pGEX-6P expression vector; N-His/GST/MBP triple-tag (N, cleaved yes); made in house; host or cells: E. coli BL21(DE3). The settings on record: PAP release, saturating CMP8. As for the experimental part: The effect of CMP8 on PAP binding to SULT1A3 was monitored using a stopped-flow spectrofluorimeter (λex=290 nm, λem≥330 nm (cutoff filter)). […] Each kobs value was determined in triplicate and the averaged values are shown. kon and koff are given, respectively, by the slopes and intercepts obtained from linear least-squares fitting of the kobs vs [PAP] plots.
(§1) Pre-Steady State Binding Studies. The pre-steady state binding of PAP to SULT1A3 was monitored via ligand-induced enzyme fluorescence changes in SULT1A3 using an Applied Photophysics SX20 stopped-flow spectrofluorimeter (32). […] All reactions were pseudo first order in [PAP]. The observed rate constant (kobs) at a given [PAP] was taken as the average of three independent progress curves each obtained from a single-exponential fit of 6-9 averaged, binding progress curves. The rate constants, kon and koff, were obtained from the slopes and intercepts predicted by linear least-squares analysis of four-points kobs vs [PAP] plots.
Given that CMP8 interacts with the SULT1A3 cap, it was reasoned it might inhibit by stabilizing the cap-closed form(s) of the enzyme. To test this hypothesis, the microscopic rate constants for nucleotide binding and release were determined in the presence and absence of saturating CMP8. The binding reactions were monitored via intrinsic fluorescence changes associated with ligand binding (30-32) (see, Methods). The resulting kobs vs [PAP] plots are presented in FIG. 4. kon and koff are obtained, respectively, from the slopes and intercepts of the plots (30,31), see Table C. […] Thus, CMP8 does indeed slow nucleotide release by increasing Kiso and thus stabilizing the closed form of the cap.
as §1, with “(29).” for “(32).”

The target of assay [2] is SULT1A3 spin-labeled at Cys 198 (Homo sapiens, UniProt P0DMM9, E198C). Briefly: Initial-rate parameters, spin-labeled SULT1A3 mutant 198.
Method: Covalent Tagging of SULT1A3 Cys Constructs. Labeling of the SULT1A3 Cys constructs was performed as described previously (17,18,21). Briefly, 3-maleimido-PROXYL (spin label) or N-cyclohexylmaleimide (diamagnetic control) was added to an enzyme containing solution at 20-fold excess over reactive Cys. Unreacted Cys was monitored using DNTB (17,18,21); reactions were considered complete when >98% of the Cys was labeled. Reaction conditions: SULT1A3 (50 μM, monomer), 3-maleimido-PROXYL or N-cyclohexylmaleimide (1.0 mM), PAP (0.50 mM), KPO4 (50 mM), pH 7.5, 4±2° C. To prepare samples for NMR, reaction mixtures were dialyzed three times against 40 volumes of PAP (0.50 mM), KPO4 (50 mM), pD 7.4, D2O (>95%), 4±2° C.
Initial-Rate Studies. Initial-rate parameters for the labeled or mutant SULT1A3 constructs were determined using a previously described 1-HP assay (25). […] Reactions were monitored via fluorescence change associated with the conversion of 1-HP to 1-HP-S (λex=325 nm, λem=370 nm). Keq for the 1-HP sulfonation reaction is −250. Given the reaction conditions outlined above, ≥99% of 1-HP is converted to 1-HP-S, and ˜0.4% of PAPS is converted to PAP at equilibrium. […] Reaction progress curves were analyzed to obtain initial-rate parameters as described previously (26,27).
Inhibition studies. Inhibition parameters were determined under conditions identical to those described above (see, Initial-Rate Studies) except that [1-HP] was increased to 5.0 μM (˜61×Km) and inhibitor concentration was varied between 0.20-20×Ki. Ki was obtained using a least-squares fit to the following partial inhibition equation (25,28): v=kcat·(Ki+(1/kcat inh)·[I])/(Ki+[I]), where kcat inh is enzyme turnover at saturating substrates and allosteric inhibitor.

pKi: −log10 of the molar value.

Sequence of SULT1A3 spin-labeled at Cys 198 (P0DMM9 whole entry E198C): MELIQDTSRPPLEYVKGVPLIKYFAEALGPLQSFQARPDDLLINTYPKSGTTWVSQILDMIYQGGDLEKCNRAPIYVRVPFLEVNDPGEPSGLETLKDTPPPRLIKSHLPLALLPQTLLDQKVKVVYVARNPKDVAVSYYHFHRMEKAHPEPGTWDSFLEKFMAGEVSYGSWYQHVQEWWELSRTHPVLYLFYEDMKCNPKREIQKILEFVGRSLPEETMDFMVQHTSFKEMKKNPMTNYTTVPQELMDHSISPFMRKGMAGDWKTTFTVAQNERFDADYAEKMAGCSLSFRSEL
Sequence of SULT1A3 (P0DMM9 whole entry): as the sequence (P0DMM9 whole entry E198C) above, with C198E counted along it

On to `CC(C)Cc1ccc2cc(CO)ccc2n1` [Compound 8, (2-Isobutylquinolin-6-yl)methanol], for which the “koff (+CMP8)/koff (−CMP8), ratio of nucleotide off-rate constants” value in assay [1] was 0.41 (±0.05). The pKi (in general, the negative decadic logarithm of the Ki, by convention in mol/L) in assay [2] is 7.34.

(Values after patent publication US12291504B2 (University of Pittsburgh—Of the Commonwealth System of …, priority 2018, dated 2025).)
